Square brackets hold non-standard residues; d marks the D form. Peptide text beside a SMILES is read from it. Nle = CCCC[C@H](N)C(=O)O
Assays:
[1] = system: Hsp70; experiment: Cellular Hsp70 levels in CHO cells; assay type: cell-based, Chinese hamster
[2] = system: hsp70 (hsp72) mRNA; experiment: Northern blot of hsp70 (hsp72) mRNA in HepG2 cells; assay type: cell-based, human
Experimental: HepG2 cells were treated with serum-free MEM containing either 1.5% BSA alone (Control, lane1), BSA plus 40 μg/ml of ALLN (ALLN, lane2), ALLN and 10 μg/ml of actinomycin D (A+AD, lane3), or ALLN and 50 μg/ml of cycloheximide (A+CXM, lane4). After 4 hours treatment at 37° C., cells were harvested. (B). HepG2 cells were treated with 40 μg/ml of ALLN in the serum-free MEM for up to 0 hour (lane1), 1 hour (lane2), 2 hours (lane3), and 3 hours (lane4) and then harvested without recovery. Or after treatment for 3 hours in the presence of ALLN as above, the ALLN containing medium were removed, cells were washed and fed fresh medium containing only BSA for recovery of up to 1 hour (lane5), 3 hours (lane6), 5 hours (lane7) or 7 hours (lane8). The total RNA was prepared, and equal amounts of the samples were loaded and run on a 1% formaldehyde-agarose gel, blotted onto a nylon membrane, and subsequently hybridized with specific synthetic oligonucleotide probes for hsp70 mRNA as described under Experimental Details. The position of 28S and 18S rRNA are shown for reference.
Total RNA was prepared using the procedure of Chomczynski and Sacchi (Chomczynski, et al., 1987) and a commercially prepared reagent, TRISOLV™ (Biotecx Laboratories Inc., Tex.) . Equal amounts of tRNA samples (10 μg) were size-fractionated on a 1% agarose-formaldehyde gel according to the methods described (Maniatis, et al., 1982) and transferred to a piece of QIAGEN plus nylon membrane. To determine loading and transfer efficiency, RNA was stained with ethidium bromide before and after transfer. The membrane was baked for 30 min. at 80° C. in vacuo (a vacuum) followed by UV cross-linking. It was then incubated for 4 hours at 65° C. in a prehybridization mixture containing 10% dextran sulfate, 1% SDS, 1M sodium chloride, 50 mM Tris-HCl (pH 7.5) and 100 μg/ml denatured salmon sperm DNA. Hybridization was carried out for 18 hours at 65° C. in the same buffer with a ^32 P-labeled (1×10^6 cpm/ml) 40-mer oligonucleotide probe to the untranslated 5' region of a human hsp70 gene (Oncogene Science). […] The membrane was then washed four times with 2×SSC, 0.1% SDS at room temperature, one time at 65° C. for 30 min., and one time at room temperature again for 5 min., and finally rinsed with 2×SSC at room temperature. This membrane was air dried and exposed to X-ray film at -80° C. for 48 hours.
Total RNA was isolated from HepG2 cells which had been incubated for 4 hours at 37° C. (FIG. 5A) with MEM containing BSA alone (Control, lane1), BSA plus 40 μg/ml of ALLN (ALLN, lane2), BSA plus ALLN and […] of actinomycin D (A+AD, lane3) or BSA plus ALLN and 50 μg/ml of cycloheximide (A+CXM, lane4). A radioprobe containing a unique sequence specific for the 5' untranslated region of hsp72 (inducible form) (Freeman et al., 1993) was used for Northern blot analysis.

[3] = system: Bip; experiment: Immunoprecipitation of Bip from radiolabeled HepG2 cells; assay type: cell-based, human; conditions: HepG2, ALLN 4 hours
Experimental: FIGS. 7A-7B: Effects of ALLN on the biosynthesis of other members of Hsp family and related proteins. HepG2 cells were pre-treated and radiolabeled with or without ALLN for 4 hours as described in FIG. 1. Cell lysates were used for SDS-PAGE (A), or for immunoprecipitation with anti-Hsp25, -Hsp27, -Hsp60, -Hsp70, -Hsp86, -Hsp90, -Hsp104, -Bip, or -albumin antibodies respectively (1 μg/ml) (B). Because the anti-Hsp25, -Hsp27, -Hsp60 and Hsp90 antibodies are from a rat source, rabbit anti-rat IgG antibody was added after the first incubation, and the incubation was extended for another 1 hour at 4° C. before collection with protein A-Sepharose.Immunoprecipitates were loaded for SDS-PAGE and aliquoted for scintillation counting and plotting. Each value was presented as mean ±S.D. from three individual culture dishes.
HepG2 cells were preincubated for 4 hours in serum-free MEM and then radiolabeled with ^3 H-Leucine (150 μCi/ml) in a serum-free, leucine-free medium. […] Cell lysates containing equal amounts of trichloroacetic acid (TCA)-insoluble radioactivity were used for immunoprecipitations by incubating with individual monoclonal antibody (1 μg/ml) for 2.5 hours at 4° C. […]

[4] = system: protein of about 80-90 kDa; experiment: Whole-cell protein pattern of [3H]-leucine-labeled HepG2 lysates on SDS-PAGE; assay type: cell-based, human; conditions: ALLN-treated versus control HepG2 cells, FIG. 2A
Source text: It was reported (Liu, et al., 1989) that in human diploid fibroblasts, heat shock treatment could induce the synthesis of several members of the Hsp family, including Hsp25, Hsp50, Hsp64, Hsp72, Hsp78, Hsp89 and Hsp98. Short, sublethal episodes of cardiac ischemia increase both Hsp70 and Hsp60 (Marber, et al., 1988). Such complex induction patterns may reflect an increased requirement for several of these Hsps, i.e., the need for several of these Hsps to increase, in order to prevent or protect pre-existing proteins from denaturation. […] It would be interesting to characterize this polypeptide and to identify its roles in the ALLN-induced cellular response.

[5] = molecular target: cathepsin B (Homo sapiens, UniProt P07858); conditions: Rock, et al., 1994; cited from earlier work

## CCCC[C@@H](C=O)NC(=O)[C@H](CC(C)C)NC(=O)[C@H](CC(C)C)NC(C)=O [ALLN, N-acetyl-leucyl-leucyl-norleucinal] (Ac-Leu-Leu-[Nle]-aldehyde)
[1]
  Response of cellular Hsp70 levels: increasing cellular Hsp70 levels
[2]; 3 hours ALLN 40 μg/ml, then 7 hours of recovery in ALLN-free medium
  hsp70 (hsp72) mRNA after recovery: declined to background levels
[2]; ALLN 40 μg/ml
  Time of ALLN treatment to significant elevation of hsp70 (hsp72) mRNA: ≤ 60 min
[2]; ALLN 40 μg/ml, 4 hours at 37° C.
  Amount of hsp70 (hsp72) mRNA: increased dramatically
[3]
  Effect on Bip: no effects
[4]
  Synthesis of a protein of about 80-90 kDa: also increased
[5]
  Activity against cathepsin B: significant activities
